From patent publication US11208412B2 (DAEGU-GYEONGBUK MEDICAL INNOVATION FOUNDATION, priority 2017, dated 2021)

What was measured:
[1] = molecular target: T1, kinases of the scanMAX Kinase assay panel (Homo sapiens, UniProt Q06418); assay: Kinase selectivity, DiscoverX scanMAX Kinase assay panel (% control); format: binding; conditions: kinase TYRO3; 1 uM in DMSO
T1 construct: purchased DiscoverX Co. (contract measurement) scanMAX Kinase assay panel
T1 sequence (Q06418 41-890): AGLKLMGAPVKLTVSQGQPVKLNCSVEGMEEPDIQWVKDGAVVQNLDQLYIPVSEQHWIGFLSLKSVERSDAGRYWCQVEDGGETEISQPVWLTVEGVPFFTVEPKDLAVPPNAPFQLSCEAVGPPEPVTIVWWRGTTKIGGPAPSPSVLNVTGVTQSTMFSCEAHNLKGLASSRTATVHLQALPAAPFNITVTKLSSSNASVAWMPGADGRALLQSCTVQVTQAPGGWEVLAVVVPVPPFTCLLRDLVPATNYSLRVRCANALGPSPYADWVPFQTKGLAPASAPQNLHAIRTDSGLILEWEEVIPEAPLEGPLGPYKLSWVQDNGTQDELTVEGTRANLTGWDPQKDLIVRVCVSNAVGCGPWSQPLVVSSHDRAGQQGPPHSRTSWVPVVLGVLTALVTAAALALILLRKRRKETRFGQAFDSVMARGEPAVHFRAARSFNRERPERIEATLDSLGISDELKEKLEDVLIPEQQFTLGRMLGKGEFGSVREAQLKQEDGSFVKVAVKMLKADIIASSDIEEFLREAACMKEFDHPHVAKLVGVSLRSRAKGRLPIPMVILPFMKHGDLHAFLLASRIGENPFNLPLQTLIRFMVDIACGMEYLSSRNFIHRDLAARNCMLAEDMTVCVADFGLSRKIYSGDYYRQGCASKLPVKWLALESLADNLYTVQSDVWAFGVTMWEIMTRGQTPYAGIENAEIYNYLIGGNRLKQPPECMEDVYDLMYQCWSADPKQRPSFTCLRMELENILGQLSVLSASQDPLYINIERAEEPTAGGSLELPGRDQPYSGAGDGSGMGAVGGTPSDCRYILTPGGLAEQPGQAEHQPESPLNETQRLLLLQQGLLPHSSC
In short: (§1)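 Percent of control computed as (compound − positive control)/(negative control − positive control) × 100, DMSO defining 100% and positive control 0%. Each panel kinase exposed to 1 uM compound; values under 35% taken to mean the compound acts on that kinase.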

[2] = molecular target: T2, kinases of the scanMAX Kinase assay panel (Homo sapiens, UniProt Q56UN5); assay: as above; format: binding; conditions: kinase YSK4; 1 uM in DMSO
T2 construct: purchased DiscoverX Co. (contract measurement) scanMAX Kinase assay panel
T2 sequence (Q56UN5 1-1328): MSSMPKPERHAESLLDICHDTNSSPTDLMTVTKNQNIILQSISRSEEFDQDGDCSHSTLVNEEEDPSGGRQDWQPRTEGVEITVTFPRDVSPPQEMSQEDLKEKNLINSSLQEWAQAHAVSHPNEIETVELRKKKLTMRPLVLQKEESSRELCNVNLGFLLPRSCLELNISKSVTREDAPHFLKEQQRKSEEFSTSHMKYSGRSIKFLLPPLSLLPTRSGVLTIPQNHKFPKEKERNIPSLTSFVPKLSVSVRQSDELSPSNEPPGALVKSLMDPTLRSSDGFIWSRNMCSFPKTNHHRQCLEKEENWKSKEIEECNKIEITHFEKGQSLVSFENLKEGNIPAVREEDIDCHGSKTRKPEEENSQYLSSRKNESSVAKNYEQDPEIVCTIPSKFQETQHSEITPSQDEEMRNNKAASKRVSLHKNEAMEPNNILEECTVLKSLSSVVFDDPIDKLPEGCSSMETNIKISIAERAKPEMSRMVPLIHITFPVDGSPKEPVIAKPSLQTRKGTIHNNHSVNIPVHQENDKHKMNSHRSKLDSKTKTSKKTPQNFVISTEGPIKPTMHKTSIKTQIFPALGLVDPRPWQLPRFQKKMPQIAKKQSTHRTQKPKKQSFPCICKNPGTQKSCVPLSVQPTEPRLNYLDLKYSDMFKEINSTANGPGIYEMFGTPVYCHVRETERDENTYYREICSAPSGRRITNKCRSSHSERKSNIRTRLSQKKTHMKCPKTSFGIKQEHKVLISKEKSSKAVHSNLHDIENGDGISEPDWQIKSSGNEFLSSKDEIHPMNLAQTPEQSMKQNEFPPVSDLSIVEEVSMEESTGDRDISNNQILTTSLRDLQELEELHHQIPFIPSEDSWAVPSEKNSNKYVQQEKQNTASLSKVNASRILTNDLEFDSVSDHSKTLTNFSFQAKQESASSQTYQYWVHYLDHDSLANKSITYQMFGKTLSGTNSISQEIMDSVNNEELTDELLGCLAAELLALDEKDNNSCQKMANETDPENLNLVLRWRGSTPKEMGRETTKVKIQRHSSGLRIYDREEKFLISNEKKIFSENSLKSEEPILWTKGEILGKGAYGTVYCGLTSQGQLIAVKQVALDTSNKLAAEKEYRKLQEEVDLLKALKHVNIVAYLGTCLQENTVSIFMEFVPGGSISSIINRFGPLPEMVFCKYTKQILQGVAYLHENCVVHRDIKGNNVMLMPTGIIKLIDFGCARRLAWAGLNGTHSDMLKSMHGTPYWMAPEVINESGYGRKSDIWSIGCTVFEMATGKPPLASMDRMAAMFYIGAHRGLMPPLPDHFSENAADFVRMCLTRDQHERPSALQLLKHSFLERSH
In short: as §1

Structure (SMILES)	remaining binding at 1 µM [1] [%]	remaining binding at 1 µM [2] [%]
CCNc1nc(Nc2ccc(C(=O)N3CCC(N4CCOCC4)CC3)cc2OC)nc2[nH]cc(C(F)(F)F)c12 [Example 104, (4-((4-(ethylamino)-5-(trifluoromethyl)-7H-pyrrolo[2,3-d]pyrimidine-2-yl)amino)-3-methoxyphenyl)(4-morpholinopiperidine-1-yl)methanone]	100	94
CNc1nc(Nc2ccc(C(=O)N3CCOCC3)cc2OC)nc2[nH]cc(C#N)c12 [Example 1, 2-((2-methoxy-4-(morpholine-4-carbonyl)phenyl)amino)-4-(methylamino)-7H-pyrrolo[2,3-d]pyrimidine-5-carbonitrile]	100	12
CC1(Nc2nc(Nc3cnn([C@H]4CCN(C5COC5)C[C@@H]4F)c3Cl)nc3[nH]cc(C#N)c23)CC1 [Example 52, 2-((5-chloro-1-((3S,4S)-3-fluoro-1-(oxetane-3-yl)piperidine-4-yl)-1H-pyrazole-4-yl)amino)((1-methylcyclopropyl)amino)-7H-pyrrolo[2,3-d]pyrimidine-5-carbonitrile]	45	0
